Laboratory results reported in the supplement of paper PMC10307832.

Assays:
Test in all cases: relative viability (nuclei count vs DMSO), 5 days (fraction); higher = more cells survive
Dasatinib + Pemetrexed = compound: Cc1nc(Nc2ncc(C(=O)Nc3c(C)cccc3Cl)s2)cc(N2CCN(CCO)CC2)n1 [Dasatinib] + Nc1nc2[nH]cc(CCc3ccc(C(=O)N[C@@H](CCC(=O)O)C(=O)O)cc3)c2c(=O)[nH]1 [Pemetrexed] (partner 0.2 µM)
Outline: (§1)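 Lung cancer cell lines, seeded in 1536-well plates, were treated the following day by pin tool with a single drug or with five library-drug doses (not always all listed) in √10 steps on top of a fixed anchor-drug dose. Cells were fixed and nuclei stained in one step after 5 days, and nuclei were counted. Relative viability is the nuclei count for treated wells divided by that for vehicle wells, reported as medians of duplicate plates.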

XMD13-2 + Palbociclib = compound: C1CC1C(=O)NC2=NNC3=C2C=CC(=C3)C4=CC(=CC=C4)C(=O)NC5CC5 [XMD13-2] + CC(=O)c1c(C)c2cnc(Nc3ccc(N4CCNCC4)cn3)nc2n(C2CCCC2)c1=O [Palbociclib] (partner 0.5 µM)
Outline: as §1

Dasatinib + Luminespib = compound: Cc1nc(Nc2ncc(C(=O)Nc3c(C)cccc3Cl)s2)cc(N2CCN(CCO)CC2)n1 [Dasatinib] + CCNC(=O)c1noc(-c2cc(C(C)C)c(O)cc2O)c1-c1ccc(CN2CCOCC2)cc1 [Luminespib] (partner 0.01 µM)
Outline: as §1

ALW-II-49-7 + Phenformin = compound: Cc1ccc(C(=O)Nc2cccc(C(F)(F)F)c2)cc1Nc1cncc(C(N)=O)c1 [ALW-II-49-7] + N=C(N)NC(=N)NCCc1ccccc1 [Phenformin] (partner 250 µM)
Outline: as §1

Row | Cell Line | relative viability (Dasatinib + Pemetrexed; first compound 0.005 µM) | relative viability (Dasatinib + Pemetrexed; first compound 0.01581 µM) | relative viability (Dasatinib + Pemetrexed; first compound 0.05 µM) | relative viability (Dasatinib + Pemetrexed; first compound 0.1581 µM) | relative viability (Dasatinib + Pemetrexed; first compound 0.5 µM) | relative viability (XMD13-2 + Palbociclib; first compound 0.05 µM) | relative viability (XMD13-2 + Palbociclib; first compound 0.1581 µM) | relative viability (XMD13-2 + Palbociclib; first compound 0.5 µM) | relative viability (XMD13-2 + Palbociclib; first compound 1.581 µM) | relative viability (XMD13-2 + Palbociclib; first compound 5 µM) | relative viability (Dasatinib + Luminespib; first compound 0.005 µM) | relative viability (Dasatinib + Luminespib; first compound 0.01581 µM) | relative viability (Dasatinib + Luminespib; first compound 0.05 µM) | relative viability (Dasatinib + Luminespib; first compound 0.1581 µM) | relative viability (Dasatinib + Luminespib; first compound 0.5 µM) | relative viability (ALW-II-49-7 + Phenformin; first compound 0.08 µM) | relative viability (ALW-II-49-7 + Phenformin; first compound 0.253 µM) | relative viability (ALW-II-49-7 + Phenformin; first compound 0.8 µM) | relative viability (ALW-II-49-7 + Phenformin; first compound 2.53 µM) | relative viability (ALW-II-49-7 + Phenformin; first compound 8 µM)
1 | LOU-NH91 | 0.414 | 0.389 | 0.407 | 0.377 | 0.319 | 0.541 | 0.554 | 0.561 | 0.475 | 0.507 | 0.348 | 0.348 | 0.285 | 0.259 | 0.27 | 0.698 | 0.671 | 0.621 | 0.596 | 0.633
2 | SW 900 | 0.47 | 0.348 | 0.43 | 0.186 | 0.203 | 0.592 | 0.382 | 0.669 | 0.549 | 0.589 | 0.141 | 0.154 | 0.159 | 0.111 | 0.103 | 0.397 | 0.542 | 0.549 | 0.703 | 0.534
3 | LCLC-103H | 0.517 | 0.437 | 0.481 | 0.461 | 0.328 | 0.485 | 0.44 | 0.466 | 0.477 | 0.481 | 0.83 | 0.88 | 0.733 | 0.52 | 0.275 | 0.306 | 0.343 | 0.281 | 0.288 | 0.335
4 | NCI-H1915 | 0.489 | 0.455 | 0.449 | 0.337 | 0.159 | 0.56 | 0.509 | 0.529 | 0.481 | 0.509 | 0.818 | 0.601 | 0.673 | 0.208 | 0.149 | 0.333 | 0.32 | 0.364 | 0.353 | 0.342
5 | NCI-H1734 | 0.377 | 0.416 | 0.387 | 0.376 | 0.341 | 0.413 | 0.332 | 0.361 | 0.358 | 0.297 | 0.185 | 0.191 | 0.159 | 0.167 | 0.156 | 0.345 | 0.359 | 0.385 | 0.381 | 0.335
6 | SK-MES-1 | 0.985 | 0.879 | 0.709 | 0.314 | 0.224 | 0.308 | 0.312 | 0.304 | 0.329 | 0.326 | 0.844 | 0.656 | 0.353 | 0.128 | 0.154 | 0.644 | 0.637 | 0.625 | 0.577 | 0.512
7 | HCC-15 | 0.198 | 0.207 | 0.209 | 0.203 | 0.205 | 0.798 | 0.684 | 0.803 | 0.709 | 0.594 | 0.381 | 0.316 | 0.248 | 0.247 | 0.108 | 0.488 | 0.433 | 0.456 | 0.544 | 0.399
8 | SK-LU-1 | 0.864 | 0.617 | 0.467 | 0.306 | 0.282 | 0.42 | 0.393 | 0.38 | 0.378 | 0.319 | 0.162 | 0.15 | 0.151 | 0.104 | 0.118 | 0.445 | 0.583 | 0.519 | 0.445 | 0.435
9 | NCI-H2023 | 0.204 | 0.238 | 0.195 | 0.175 | 0.191 | 0.436 | 0.373 | 0.439 | 0.328 | 0.363 | 0.646 | 0.669 | 0.599 | 0.518 | 0.507 | 0.384 | 0.467 | 0.403 | 0.395 | 0.319
10 | HCC-366 | 0.173 | 0.147 | 0.166 | 0.177 | 0.114 | 0.466 | 0.362 | 0.473 | 0.407 | 0.403 | – | – | – | – | – | 0.649 | 0.623 | 0.541 | 0.622 | 0.611
11 | NCI-H1355 | 1.04 | 0.92 | 1.1 | 0.806 | 0.663 | 0.442 | 0.365 | 0.42 | 0.398 | 0.425 | 0.766 | 0.561 | 0.569 | 0.458 | 0.435 | 0.457 | 0.4 | 0.4 | 0.443 | 0.379
12 | NCI-H1650 | 0.341 | 0.38 | 0.287 | 0.285 | 0.268 | 0.29 | 0.399 | 0.385 | 0.332 | 0.312 | 0.228 | 0.199 | 0.236 | 0.177 | 0.187 | 0.447 | 0.465 | 0.427 | 0.492 | 0.476
13 | SW 1573 | 0.889 | – | 0.742 | 0.607 | 0.548 | 0.442 | 0.366 | 0.717 | 0.371 | 0.287 | 0.211 | 0.216 | 0.272 | 0.139 | 0.154 | 0.347 | 0.385 | 0.374 | 0.479 | 0.398
14 | NCI-H661 | 0.913 | 0.823 | 0.889 | 0.763 | 0.51 | 0.378 | 0.395 | 0.392 | 0.406 | 0.408 | 0.99 | 1.02 | 1 | 0.844 | 0.657 | 0.28 | 0.282 | 0.278 | 0.295 | 0.297
15 | NCI-H1623 | – | – | – | – | – | – | – | – | – | – | 0.414 | 0.401 | 0.49 | 0.412 | 0.319 | 0.566 | 0.504 | 0.574 | 0.565 | 0.564
16 | NCI-H596 | 0.486 | 0.47 | 0.439 | 0.415 | 0.359 | – | – | – | – | – | 0.809 | 0.691 | 0.776 | 0.552 | 0.478 | 0.804 | 0.706 | 0.596 | 0.622 | 0.788
17 | NCI-H1648 | 0.454 | 0.716 | 0.936 | 0.699 | 0.239 | 0.309 | – | 0.273 | 0.275 | 0.235 | – | – | – | – | – | – | – | – | – | –
18 | ABC-1 | – | – | – | – | – | 0.72 | 0.606 | 0.78 | – | 0.556 | 0.562 | 0.52 | 0.314 | 0.411 | 0.293 | 0.3 | 0.244 | 0.249 | 0.26 | 0.262
